# According to patent publication US7488822B2 (Wyeth, priority 1999, dated 2009):
# Values joined by “and” are separate entries in the source; they are usually repeats but may differ in a detail not shown here. Identical values can stand only once.
# Legend:
# [1] = tested on: rat uterine decidualization; assay: Rat decidualization assay; format: in vivo; conditions: for Estimated EC50 (mg/kg, s.c.): uterine wet weight; for Estimated average EC50 (mg/kg, s.c.): average for dose-response curves; for Decidualization IC50: decrease in EC50 progesterone induced decidual response
# Protocol: The animals are treated once daily for seven days. […] Uteri are removed and trimmed of fat.
# Body weight: Mean total animal body weight (default-kg)
# Decidual response: [(D-C)/C]×100%
# [2] = tested on: T47D cells; assay: T47D cell proliferation assay (BrdU incorporation); format: cell-based; conditions: half-maximal decrease in trimegestone induced BrdU incorporation, individual studies, read-out: Estimated IC50
# Protocol: T47D cell proliferation assay • The objective of this assay is the determination of progestational and antiprogestational potency by using a cell proliferation assay in T47D cells. A compound's effect on DNA synthesis in T47D cells is measured. […] Growth medium: DMEM:F12 (1:1) (GIBCO, BRL) supplemented with 10% (v/v) fetal bovine serum (not heat-inactivated), 100 U/ml penicillin, […], and 2 mM GlutaMax (GIBCO, BRL). • b. Treatment medium: Minimum Essential Medium (MEM) (#51200-038GIBCO, BRL) phenol red-free supplemented with 0.5% charcoal stripped fetal bovine serum, 100 U/ml penicillin, […] streptomycin, and 2 mM GlutaMax (GIBCO, BRL). • c. Cell Culture • Stock T47 D cells are maintained in growth medium. For BrdU incorporation assay, cells are plated in 96-well plates (Falcon, Becton Dickinson Labware) at 10,000 cells/well in growth medium. […] Cell Proliferation Assay • At the end of BrdU labeling, the medium is removed and BrdU incorporation is measured using a cell proliferation ELISA kit (#RPN 250, Amersham Life Science) according to manufacturer's instructions. […] Then 25 μl of 1 M sulfuric acid is added to each well to stop color reaction and optical density is read in a plate reader at 450 nm within 5 min. • e. […] EC50 or IC50 values are calculated from the retransformed values. […]
compound,measurement,setting,value
CC(=O)[C@H]1CC[C@H]2[C@@H]3CCC4=CC(=O)CC[C@]4(C)[C@H]3CC[C@]12C [Progesterone],"Estimated EC50 (mg/kg, s.c.)",[1]; individual studies,5.50 mg/kg
"Cc1cc(C#N)sc1-c1ccc2c(c1)C1(CCCCC1)OC(=O)N2 [Compound 10, 5-(1,2-Dihydro-2-oxospiro[4H-3,1-benzoxazine-4,1-cyclohexan]-6-yl)-4-methyl-2-thiophenecabonitrile]","Decidualization, percentage inhibition at the dose specified",[1]; @ 10 mg/kg,50% @
C#C[C@]1(O)CC[C@H]2[C@@H]3CCC4=CC(=O)CC[C@@H]4[C@H]3C(=C)C[C@@]21CC [3-Ketodesogestrel],"Estimated average EC50 (mg/kg, s.c.)",[1],0.10 mg/kg
same,"Estimated EC50 (mg/kg, s.c.)",[1]; individual studies,0.10 mg/kg and 0.06 mg/kg and 0.11 mg/kg
"CC1(C)OC(=O)Nc2ccc(-c3csc(C#N)c3)cc21 [Compound 17, 4-(4,4-Dimethyl-2-oxo-1,4-dihidro-2H-benzo[d][1,3]oxazin-6-yl)-thiophene-2-carbonitrile]",Decidualization IC50,[1],2.3 mg/kg
"CC1(C)OC(=O)Nc2ccc(-c3cc(F)cc(C#N)c3)cc21 [Compound 19, 3-(4,4-Dimethyl-2-oxo-1,4-dihydro-2H-benzo[d][1,3]oxazin-6-yl)-5-fluorobenzonitrile]",Decidualization IC50,[1],0.35 mg/kg
"Cc1cc(C#N)sc1-c1ccc2c(c1)C(C)(C)OC(=O)N2 [Compound 18, 5-(4,4-Dimethyl-2-oxo-1,4-dihydro-2H-benzo[d][1,3]oxazin-6-yl)-4-methyl-thiophene-2-carbonitrile]",Decidualization IC50,[1],1.5 mg/kg
"CC1(C)OC(=O)Nc2ccc(-c3ccc(F)c(Cl)c3)cc21 [Compound 20, 6-(3-Chloro-4-fluoro-phenyl)-4,4-dimethyl-1,4-dihydro-benzo[d][1,3]oxazin-2-one]",Decidualization IC50,[1],1 mg/kg
"CC1(C)OC(=O)Nc2ccc(-c3cccc(Br)c3)cc21 [Compound 13, 6-(3-Bromo-phenyl)-4,4-dimethyl-1,4-dihydro-benzo[d][1,3]-oxazin-2-one]",Decidualization IC50,[1],3 mg/kg
CC#C[C@]1(O)CC[C@H]2[C@@H]3CCC4=CC(=O)CCC4=C3[C@@H](c3ccc(N(C)C)cc3)C[C@@]21C [RU486],IC50,[2],0.016 nM and 0.018 nM
same,"Estimated IC50 (mg/kg, p.o.)","[1]; p.o., EC50 dose of progesterone, individual studies",0.21 mg/kg and 0.14 mg/kg
"CC1(C)OC(=O)Nc2ccc(-c3ccc(S(N)(=O)=O)s3)cc21 [Example 141, 5-(4,4Dimethyl-2-oxo-1,4-dihydro-2H-benzo[d][1,3]-oxazin-6-yl)-thiophene-2-sulfonamide]",melting point,,258 to 260 °C
C#C[C@]1(O)CC[C@H]2[C@@H]3CCC4=CC(=O)CC[C@@H]4[C@H]3CC[C@@]21CC [Levonorgestrel],"Estimated average EC50 (mg/kg, s.c.)",[1],0.10 mg/kg
same,"Estimated EC50 (mg/kg, s.c.)",[1]; individual studies,0.08 mg/kg and 0.12 mg/kg and 0.09 mg/kg (2×)
"N#Cc1cc(F)cc(-c2ccc3c(c2)C(C2CC2)(C2CC2)OC(=O)N3)c1 [Compound 15, 3-(4,4-Dicyclopropyl-2-oxo-1,4-dihydro-2H-benzo[d][1,3]oxazin-6-yl)-5-fluoro-benzonitrile]",Decidualization IC50,[1],3 mg/kg
"CC1(C)OC(=O)Nc2ccc(-c3ccc(C#N)c(F)c3)cc21 [Example 114, 6-(4-Cyano-3-fluoro-phenyl)-4,4-dimethyl-1,4-dihydrobenzo[d][1,3]-oxazin-2-one]",melting point,,272 to 275 °C
"CC1(C)OC(=O)Nc2ccc(-c3coc(C#N)c3)cc21 [Compound 7, 4-(4,4-Dimethyl-2-oxo-1,4-dihydro-2H-benzo[d][1,3]oxazin-6-yl)-furan-2-carbonitrile]",inhibition at 3 mg/kg,"[1]; @ 3 mg/kg, read-out: Decidualization, percentage inhibition at the dose specified",75%
"CC(=O)O[C@]1(C(C)=O)CC[C@H]2[C@@H]3C[C@H](C)C4=CC(=O)CC[C@]4(C)[C@H]3CC[C@@]21C [MPA, medroxyprogesterone acetate]","Estimated EC50 (mg/kg, s.c.)",[1]; individual studies,0.42 mg/kg and 0.39 mg/kg (2×)
